“And” between values parts separate entries of the source, which are not always exact repeats. Identical values can stand only once. “Also recorded” adds a separate entry of the source.

As usually defined, the EC50 is the concentration at which the effect is half-maximal. The pEC50 is the negative decadic logarithm of the EC50, by convention in mol/L. Low values mean a large EC50, high ones a small EC50.

Data set [1] addresses T1, P2X1 receptors (Homo sapiens, UniProt P51575).
T1 sequence (P51575 1-399): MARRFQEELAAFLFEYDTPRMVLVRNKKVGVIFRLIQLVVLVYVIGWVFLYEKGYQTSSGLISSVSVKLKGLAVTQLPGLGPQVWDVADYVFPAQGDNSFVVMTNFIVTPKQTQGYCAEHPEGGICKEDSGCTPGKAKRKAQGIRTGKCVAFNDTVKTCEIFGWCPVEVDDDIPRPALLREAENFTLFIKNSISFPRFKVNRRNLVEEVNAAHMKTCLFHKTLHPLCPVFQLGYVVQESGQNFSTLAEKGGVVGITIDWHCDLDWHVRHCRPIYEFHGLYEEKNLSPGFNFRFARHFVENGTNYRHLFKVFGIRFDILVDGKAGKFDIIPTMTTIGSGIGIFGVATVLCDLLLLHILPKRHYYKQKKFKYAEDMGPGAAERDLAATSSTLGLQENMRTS
As to the kind of experiment: Confocal imaging of Alexa-647-ATP cell-surface labelling and competition by pre-treatment.
Excerpt: (§1) Live cells were routinely visualised in phosphate buffered saline (PBS (mM); 155 NaCl, 3.0 Na2HPO4, 1.0 KH2PO4, pH 7.4). Static and time-lapse images were collected using a FV300 laser-scanning confocal microscope with either an Olympus UplanFLN 40 × NA1.30 oil immersion objective and a 60 μm confocal aperture, or a PlanApo 60x NA1.42 oil immersion objective and a 60 μm confocal aperture. Images were exported to ImageJ v1.47 (National Institutes of Health, USA) and the Multi Measure plugin (Optinav Inc, WA, USA) used for analysing regions of interest.

Data set [2] has as its target P2X1 with N-terminus substituted by that of P2X2 receptor. More on the design: method as in Rettinger and Schmalzing, 2004; Bhargava et al., 2013. To be noted: desensitisation slowed by P2X2 N-terminus substitution; ref Rettinger and Schmalzing, 2004; Bhargava et al., 2013; cited from earlier work.
The test system of data set [3] is Untransfected HEK 293T cells. As to the kind of experiment: Fluorometric microplate assay with voltage-sensitive dye on untransfected cells. The format is cell-based.
Data set [4] concerns the target T1, P2X1 receptors. Kind of data set: Fluorometric microplate assay with voltage-sensitive (membrane potential) dye, FlexStation III. The format is cell-based. More on the design: expressed in transfected cells. To be noted: for Hill slope (agonist response): agonist concentration-response; for EC50 / pEC50: agonist, peak fluorescence, HEK 293T cells stably expressing P2X1; for Hill slope (inhibition): inhibition of 10 μM ATP responses. Here is the method: In brief, fragments were assessed for both agonist and antagonist activities using HEK 293T cells stably expressing doxycycline-inducible P2X1 receptors incubated for 45 min with 50 μl of a fluorescent dye sensitive to membrane potential (dye FLIPR Membrane Potential Assay Kit, Molecular Devices, Wokingham, UK) that was dissolved in buffer (mM: 115 NaCl, 1 KCl, 1 MgCl2, 1 CaCl2, 10 HEPES, 10 D-Glucose, pH 7.4). Dye-loaded cells were transferred to a FlexStation III (Molecular Devices) where compound applications were made without removing the dye. At recording intervals of 1.2 s, baseline fluorescence was recorded for 20 s, followed by a further 60 s after the addition of compounds. Ultimately two applications were made to the same cells. In the first, agonist activity was assessed by adding 50 μl novel fragment (final concentration = 300 μM) to each well. Following the completion of the first application, a second 50 μl application of 30 μM ATP (final concentration = 10 μM) was then added to the same cells. A response upon the first (fragment) application and an absence of a response on the second (ATP) application indicated agonist activity followed by inhibition as a result of receptor desensitisation.
In addition to testing fragments, the reproducibility of each experiment was assessed by including an ATP concentration–response in the first column and a saline control in the last column of the first application. […] The saline control in the first application also meant that an ATP concentration–response could be performed at the end of the second application. This allowed cell viability to be assessed by comparing the ATP concentration–response at the start of the first application with the ATP concentration–response at the end of the second application. […] Measurements from these concentration-dependence experiments were fitted using Eq. (1) below.
Measurements from the FlexStation III were recorded using the integrated software SoftMax Pro v5.4.5 (Molecular Devices). Analysis of concentration-dependence was performed with GraphPad Prism v5.00 (GraphPad Software, San Diego, CA, USA). Peak fluorescence was measured at a range of ligand concentrations and normalised to the maximum peak fluorescence for the same experiment. The mean and standard error of the mean (S.E.M.) for a series of measurements was plotted against agonist or antagonist concentration and iteratively fitted to the following equation:(1) y=Imin+Fmax−Fmin/1+10^((logR50-x)^nH) where Fmin is the baseline fluorescence, Fmax is the peak fluorescence, R50 is the concentration of ligand needed to generate a half-maximal response, x is the ligand concentration and nH is the Hill slope.

In a further data set the target is T2, P2X7 receptors (Homo sapiens, UniProt Q99572).
T2 construct: expressed in transfected cells; host or cells: HEK 293T
T2 sequence (Q99572 1-595): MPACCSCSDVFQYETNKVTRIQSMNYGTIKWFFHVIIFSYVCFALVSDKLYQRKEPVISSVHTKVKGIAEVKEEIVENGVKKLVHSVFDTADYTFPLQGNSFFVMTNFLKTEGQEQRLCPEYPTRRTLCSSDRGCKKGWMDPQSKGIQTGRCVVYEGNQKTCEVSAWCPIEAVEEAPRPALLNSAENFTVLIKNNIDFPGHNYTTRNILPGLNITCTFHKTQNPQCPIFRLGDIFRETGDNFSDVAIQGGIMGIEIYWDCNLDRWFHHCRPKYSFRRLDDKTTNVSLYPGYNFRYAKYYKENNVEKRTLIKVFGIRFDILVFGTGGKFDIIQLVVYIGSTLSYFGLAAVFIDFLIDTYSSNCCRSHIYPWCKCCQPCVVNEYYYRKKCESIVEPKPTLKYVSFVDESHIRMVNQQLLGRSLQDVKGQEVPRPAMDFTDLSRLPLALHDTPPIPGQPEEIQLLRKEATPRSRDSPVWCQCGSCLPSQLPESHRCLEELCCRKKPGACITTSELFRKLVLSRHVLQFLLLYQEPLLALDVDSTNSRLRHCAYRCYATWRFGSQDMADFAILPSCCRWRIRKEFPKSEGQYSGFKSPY
Kind of data set: Confocal imaging of Alexa-647-ATP labelling, P2X7-expressing cells. The format is binding. To be noted: HEK 293T cells expressing P2X7, data not shown.

A further data set has as its target T3, P2X4 receptors (Homo sapiens, UniProt Q99571).
T3 construct: expressed in transfected cells; host or cells: HEK 293T
T3 sequence (Q99571 1-388): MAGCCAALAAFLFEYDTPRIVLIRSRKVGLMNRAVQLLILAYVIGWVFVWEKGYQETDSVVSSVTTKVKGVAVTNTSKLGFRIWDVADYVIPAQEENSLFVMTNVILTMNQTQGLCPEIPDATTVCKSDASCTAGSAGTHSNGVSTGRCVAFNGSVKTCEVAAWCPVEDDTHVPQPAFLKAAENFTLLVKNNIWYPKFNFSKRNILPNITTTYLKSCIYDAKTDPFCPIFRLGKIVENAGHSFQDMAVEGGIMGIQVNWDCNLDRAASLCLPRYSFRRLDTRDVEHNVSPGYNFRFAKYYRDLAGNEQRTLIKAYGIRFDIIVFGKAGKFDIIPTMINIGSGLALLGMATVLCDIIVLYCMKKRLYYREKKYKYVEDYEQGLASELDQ
As to the kind of experiment: Confocal imaging of Alexa-647-ATP labelling, P2X4-expressing cells. To be noted: HEK 293T cells expressing P2X4, data not shown. The format is binding.

Data set [5] addresses T1, P2X1 receptors. As to the kind of experiment: Confocal microscopy kinetic analysis of Alexa-647-ATP binding at the cell surface. Set-up: expressed in transfected cells. As for the experimental part:
Kinetic parameters were determined according to the following model of a simple bimolecular binding scheme:(2) L+R⇌koffkonLR where L is the free ligand concentration, R is receptor concentration, LR is the ligand–receptor complex and kon and koff are the microscopic association and dissociation rate constants. In a simple scheme such as this, the equilibrium dissociation constant (Kd) is equal to the ratio of dissociation to association rate constants, such that:(3) Kb=k−1/k+1
According to a one site binding model of the type shown, the observed rates of association and dissociation can be used to estimate k+1 and k−1:(4) 1/τoff=k−1 and(5) 1/τon=k+1[L]+k−1 where τon refers to the rate at which fluorescence increases, τoff refers to the rate that fluorescence decreases and [L] is concentration of the ligand used.
Intracellular and background fluorescence was also routinely monitored as a control.

Data set [6] has as its system non-induced HEK 293T cells. Kind of data set: Confocal imaging of Alexa-647-ATP labelling on non-induced cells. The format is binding. To be noted: 150 nM Alexa-647-ATP.
Excerpt: as §1
Where [7] appears, read: pre-treated with 5 mM, 150 nM Alexa-647-ATP.

Excerpt for P2X4 receptors: as §1
Excerpt for P2X7 receptors: as §1

`Nc1ncnc2c1ncn2[C@@H]1O[C@H](COP(=O)(O)OP(=O)(O)OP(=O)(O)O)[C@@H](O)[C@H]1O` [ATP]: the “Alexa-647-ATP cell-surface fluorescence after pre-treatment” value (“Alexa-647-ATP cell-surface fluorescence” below) on P2X1 receptors [1] (setting [7]) is listed as “not seen”. The EC50 result in data set [2] is “low nanomolar”.
Consider `Nc1ncnc2c1ncn2[C@@H]1O[C@H](COP(=O)(O)OP(=O)([O-])OP(=O)([O-])O)[C@@H](O)[C@H]1O.[Mg+2]` [MgATP], for which, in data set [3], the “fluorescent response to agonist” value was “did not respond”. On P2X1 receptors [4], the “Hill slope (agonist response)” value stood at 1.0 ± 0.1, it took 14.1 µM to reach a half-maximal effect (EC50) and the pEC50 turned out to be 4.85 ± 0.07.
For the molecule `O=C(Nc1cc(C(=O)Nc2ccc(S(=O)(=O)O)cc2S(=O)(=O)O)cc(C(=O)Nc2ccc(S(=O)(=O)O)cc2S(=O)(=O)O)c1)Nc1cc(C(=O)Nc2ccc(S(=O)(=O)O)cc2S(=O)(=O)O)cc(C(=O)Nc2ccc(S(=O)(=O)O)cc2S(=O)(=O)O)c1` [NF449], the “Alexa-647-ATP cell-surface fluorescence” value at P2X1 receptors [1] (pre-treated with 250 μM, 150 nM Alexa-647-ATP) is recorded as “not present; also recorded: not seen”. Moreover, the “Hill slope (inhibition)” value on P2X1 receptors [4] was determined as 1.1 ± 0.2.
Consider `Nc1ncnc2c1ncn2[C@@H]1O[C@H](COP(=O)(O)OP(=O)([O-])OP(=O)([O-])O)[C@@H](O)[C@H]1O.[Na+].[Na+]` [NaATP], for which, in data set [3], the “fluorescent response to agonist” value is reported as “did not respond”. For the same molecule, at P2X1 receptors [1] (setting [7]), the “Alexa-647-ATP cell-surface fluorescence” value was “not present”. Also, on P2X1 receptors [4], the “Hill slope (agonist response)” value is given as 0.9 ± 0.2, the half-maximal effective concentration (EC50) was 5.49 µM and the pEC50 was determined as 5.26 ± 0.09.
In the case of `Cc1ccc(C(=O)Nc2ccc(S(=O)(=O)O)c3cc(S(=O)(=O)O)cc(S(=O)(=O)O)c23)cc1NC(=O)c1cccc(NC(=O)Nc2cccc(C(=O)Nc3cc(C(=O)Nc4ccc(S(=O)(=O)O)c5cc(S(=O)(=O)O)cc(S(=O)(=O)O)c45)ccc3C)c2)c1` [suramin], the “Alexa-647-ATP cell-surface fluorescence” value at P2X1 receptors [1] (pre-treatment, concentration not printed, 150 nM Alexa-647-ATP) is recorded as “still seen; also recorded: no competition was seen”; on P2X1 receptors [1] (pre-treatment, concentration not printed, 150 nM Alexa-647-ATP, listed as Suramin), “did not alter cell-surface fluorescence”. Also, the “Hill slope (inhibition)” value on P2X1 receptors [4] was determined as 1.5 ± 0.7.
Turning to Alexa-647-ATP, the “cell-surface fluorescence after addition of ligand” value at P2X1 receptors [1] (150 nM Alexa-647-ATP, P2X1-expressing HEK 293T cells) is “rapid increase in cell-surface fluorescence”. For the same molecule, the “cell permeability (fluorescence inside labelled cells)” value on P2X1 receptors [1] (live HEK 293T cells, confocal) is recorded as “not cell-permeable”. For the same molecule, the results for the cell-surface fluorescence entry (on P2X7 receptors; on P2X4 receptors; in data set [6]) were “could not detect any measureable fluorescence”, “could not detect any measureable fluorescence” and “not present”, respectively. For the same molecule, on P2X1 receptors [4], the “Hill slope (agonist response)” value was determined as 1.1 ± 0.1. For the same molecule, the half-maximal effective concentration (EC50) is 5.75 µM on P2X1 receptors [4] and “low nanomolar” in data set [2]. Further, at P2X1 receptors [4], the pEC50 came to 5.24 ± 0.04. For the same molecule, the kobs was determined as 0.79 ± 0.08 min⁻¹ at P2X1 receptors [5] (0.5 μM Alexa-647-ATP) and 5.86 ± 0.58 min⁻¹ at P2X1 receptors [5] (5 μM Alexa-647-ATP). Moreover, on P2X1 receptors [5] (after rapid washing with PBS, mono-exponential fits), the “koff, direct measurement of dissociation” value was 0.00667 s⁻¹ and 0.00678 s⁻¹. Besides, the “association rate (kon)” value on P2X1 receptors [5] (slope of 1/τon (kobs) vs concentration) was determined as 1.142e+06 M⁻¹ s⁻¹. Moreover, at P2X1 receptors [5] (y-axis intercept of 1/τon (kobs) vs concentration), the “dissociation rate (koff)” value was 0.136 s⁻¹.

The values above are taken from article PMC4728187, “A fluorescent approach for identifying P2X1 ligands” (Neuropharmacology, 2015).
